Measured values from PMC4681141, “Antiplasmodial activity, in vivo pharmacokinetics and anti-malarial efficacy evaluation of hydroxypyridinone hybrids in a mouse model” (Malaria Journal, 2015).
Like-named read-outs stand apart in the source and are kept apart here.

What was measured:
[1] = design: method as in earlier work; details: mice; ref 25 (Salako); cited from earlier work
[2] = system: P. falciparum 3D7; experiment: In vitro antiplasmodial pLDH assay, chloroquine-sensitive strain 3D7; type: cell-based; details: Plasmodium falciparum, read-out: IC50 against 3D7
Protocol: (§1) The parasites were continuously cultured in vitro according to the method described by Trager and Jensen but with modifications. The cultures were maintained at 37 °C in O-positive (O^+) human erythrocytes in complete culture medium, which contained RPMI 1640 (Gibco-BRL Laboratories) growth medium supplemented with 25 mM 4-(2-hydroxyethyl)piperazine-1-ethanesulfonic acid (HEPES) (Sigma-Aldrich Chemical Company) buffer, 22 mM glucose (Sigma), 5 g/l albumax (Gibco-BRL Laboratories), 25 mM sodium carbonate (Sigma) and 0.3 mM hypoxanthine (Sigma). In order to control microbial contamination […] gentamicin (Sigma) was added to the culture medium, and to obtain a loosely synchronous ring stage, 5 % sterile aqueous D-sorbitol (Sigma) was used. The antiplasmodial assay was initiated with the parasites in the trophozoite stage and with a parasitaemia and haematocrit of 2 %.
(§2) Non-parasitized erythrocytes were used as a negative control and parasitized erythrocytes, without any test compound, were used as positive control. A full day dose–response was performed for all compounds to determine the concentration inhibiting 50 % of parasite growth (IC50 value). The plates were incubated for 48 h at 37 °C in a gassing chamber containing a mixture of 5 % CO2, 3 % O2 and 92 % […]. In order to quantify parasite viability and to determine the effect of the compounds on the parasite, a parasite lactate dehydrogenase (pLDH) assay was used as described by Makler et al., but with modifications.

[3] = system: P. falciparum D10; experiment: In vitro antiplasmodial pLDH assay, chloroquine-sensitive strain D10; type: cell-based; details: Plasmodium falciparum, read-out: IC50 against D10
Protocol: as §1, §2

[4] = system: Plasmodium berghei (ANKA strain); experiment: In vivo anti-malarial efficacy, Peters' 4-day test; design: species or system C57BL/6 mice; details: for % reduction of parasitemia Day 9: vs placebo
Protocol: The chloroquine-sensitive Plasmodium berghei (ANKA strain) was used to assess in vivo anti-malarial efficacy of the test compounds. The parasites were maintained in a C57BL/6 mouse by inoculation with 250 µl of a 1:1 (v/v) suspension of erythrocytes infected with P. berghei in phosphate buffered saline (PBS). On the day of the experiment the host mouse was anaesthetized intraperitoneally with a mixture of ketamine (120 mg/kg) and xylazine (16 mg/kg). Whole blood from the host mouse was drawn by cardiac puncture into a Vacuette® heparin tube and a suspension of P. berghei parasitized erythrocytes (1 × 10^7) in PBS was prepared and the test mice were infected with 200 µl of this suspension intraperitoneally.
Evaluation of the curative potential of the test compounds was performed using Peters’ 4-day test as described. The mice were dosed orally at 20 and 40 mg/kg and intravenously at 4 and 8 mg/kg 2 h post-infection and for three consecutive days (D0 to D3). On the first day (D0), blood samples were collected serially from each mouse at 0.5, 1, 3, and 7 h post-dosing in order to provide quantitative measurements of drug exposure which is needed for the sound interpretation of the efficacy of the anti-malarials. […] The mice were also dosed orally with PBS as a control. The parasitaemia was determined from the […] (D4) by preparing thin blood films from the tail of each mouse and the smears were fixed with methanol and stained with Giemsa. This was repeated every 2–3 days to monitor the efficacy of the test compounds. The formula used to calculate % parasitaemia and % reduction is described below, respectively. The data for % parasitaemia and % reduction of parasitaemia is presented in Table 4. %Parasitaemia =No.ofparasitizedRBCoutof500erythrocytes/Totalno.ofRBCcounted×100 %Reduction =Parasitamiaofplacebo-Parasitamiaoftestcompound/Parasitamiaofplacebo×100

[5] = system: P. falciparum Dd2; experiment: In vitro antiplasmodial pLDH assay, chloroquine-resistant strain Dd2; type: cell-based; details: Plasmodium falciparum, read-out: IC50 against Dd2
Protocol: as §1, §2

[6] = system: P. falciparum K1; experiment: In vitro antiplasmodial pLDH assay, chloroquine-resistant strain K1; type: cell-based; details: Plasmodium falciparum, read-out: IC50 against K1
Protocol: as §1, §2

[7] = system: P. falciparum chloroquine-sensitive and -resistant strains; type: cell-based, Plasmodium falciparum; details: highest CQR IC50 value / lowest CQS IC50 value
Excerpt: This value provides a quantitative measurement of the antiplasmodial activity against CQR strains relative to that against CQS strains. The higher the RI value, the higher the level of resistance.

[8] = Drug exposure in P. berghei-infected mice (blood concentrations on D0); type: in vivo, C57BL/6 mice; details: oral 20 and 40 mg/kg
[9] = Pharmacokinetic study in uninfected C57BL/6 mice (LC-MS/MS of blood); type: in vivo; details: for clearance / Vd: iv; for Vd: read-out: Vss; for AUC(0-inf) / half-life: mouse; for blood levels after oral dosing: oral 20 mg/kg, uninfected mice
Protocol: A comprehensive pharmacokinetic (PK) study of compound 1 and 2 was performed on 10-week old male and female C57BL/6 mice (20–30 g) obtained from the University of Cape Town Medical School Animal Unit. The mice were housed in ventilated cages at room temperature (approximately 22 °C) with constant supply of food and water and were monitored twice daily. The study was authorized by the Faculty of Health Science Animal Research Ethics Committee before commencement: Reference No. 012/020. All the work was performed according to the guidelines established by Austin et al.. […] In each experiment a group of five animals were dosed orally (10 ml/kg) at 20 mg/kg and intravenously (5 ml/kg) via the dorsal penile vein at 4 mg/kg under anaesthesia. For oral dosage, a gavage needle was used for the administration of test compounds directly into the lower oesophagus or stomach. […] Lithium heparin-coated MiniCollect® Plasma Tubes (Lasec, South Africa) were used to collect the blood samples. The collected blood samples were placed on ice immediately after sampling, and were frozen at −80 °C until analysis. The blood samples stored at −80 °C were thawed at room temperature and then mixed by vortex to ensure homogeneity. Twenty µl of blood was mixed with 50 µl Milli-Q water (Millipore, USA) and 150 µl acetonitrile (Merck). The mixture was vortexed for 15 s, sonicated for 10 min and centrifuged at 13,000g for 5 min. The supernatant was transferred to a flat-bottomed glass insert and placed in a glass vial and placed in the autosampler for analysis. A liquid chromatography–mass spectrometry (LC/MS/MS) system was employed for the quantification of the compounds in mouse blood. The LC system employed was an ultra-fast liquid chromatography (UFLC) system (Shimadzu) and the separation of the compounds was performed on a Phenomenex, Luna 5 μm PFP (2), 100 Å, 50 mm × 2 mm analytical column. The mobile phase A consisted of 0.1 % formic acid in water (v/v) and mobile phase B consisted of acetonitrile. The flow rate was set at 500 µl/min and the temperature of the column was maintained at 40 °C. […] The detection of the compounds was performed on an AB Sciex 3200 Q-Trap mass spectrometer which was operated at unit resolution in the multiple reaction monitoring (MRM) mode. The calibration range for all the compounds was between 7.8 and 1000 ng/ml and the accuracy (% Nom) for the calibration curves was between 90.3 and 104.0 %. […] Non-compartmental analysis was performed on each individual set of data using PK Solutions 2.0 Pharmacokinetic Analysis Software (Summit Research Services, Montrose, USA). The following PK parameters were calculated: apparent terminal half-life [t½ (min)], total exposure [AUC0–α (µM min)], volume of distribution (l/kg) and plasma clearance [CL (l/min/kg)].

[10] = Toxicity observed in dosed mice; type: in vivo; details: dosed orally and intravenously
Protocol: They both presented poor PK properties following oral administration. However, the LC–MS/MS assay only detected the parent compound and no assays were conducted to measure or identify any possible metabolites. The decision to perform efficacy studies was based on the possibility that compounds 1 and 2 may have high first pass effect which may cause low bioavailability. After the infected mice were dosed orally and intravenously with compound 1 and 2, the blood concentrations were measured in P. berghei-infected mice at different time intervals to measure the exposure of the infected mice to the drug. […] High toxicity was also detected when dosed orally and intravenously. The PK studies were only conducted for 9 h, and therefore the symptoms of toxicity were not severe. However, with efficacy studies the mice are dosed every day for 4 days, and this might cause distress to the mice because the toxic effect of the drug will be more severe. The efficacy study for compound 2 is not reported in this paper.

[11] = Oral 10 mg/kg/day, 4 days (reference drug)
[12] = chloroquine-sensitive strain 3D7, 48 h, pLDH, mean of three independent experiments
[13] = chloroquine-sensitive strain D10, 48 h, pLDH, mean of three independent experiments
[14] = chloroquine-resistant strain Dd2, 48 h, pLDH, mean of three independent experiments
[15] = chloroquine-resistant strain K1, 48 h, pLDH, mean of three independent experiments
[16] = both sexes, C57BL/6, mouse, whole blood, 4 mg/kg, intravenous 4 mg/kg, uninfected C57BL/6 mice, blood
[17] = both sexes, whole blood, intravenous 4 mg/kg, uninfected C57BL/6 mice, blood
[18] = intravenous 4 mg/kg, uninfected C57BL/6 mice, blood, 4 mg/kg

SMILES: CCN(CC)CCCC(C)Nc1ccnc2cc(Cl)ccc12 (stereo not drawn) [Chloroquine, reference compound]
- half-life [1]: 7 h
- oral bioavailability [1]: 79–90%
- IC50 ([2]; 3D7, 48 h): 19 nM
- IC50 ([3]; D10, 48 h): 23 nM
- Average % parasitemia Day 4 [4, 11]: 0%
- Average % parasitemia Day 6 [4, 11]: 0%
- Average % parasitemia Day 9 [4, 11]: 2 ± 1.6%
- % reduction of parasitemia Day 9 [4, 11]: 92.0 ± 0.4%
- IC50 ([5]; DD2, 48 h): 180 ± 10 nM
- IC50 ([6]; K1, 48 h): 279 ± 2 nM

SMILES: O=c1cc(CNCCCCCCNc2ccnc3cc(Cl)ccc23)n(C2CC2)cc1OCc1ccccc1 [Compound 1]
- RI (resistance index) [7]: 10.7
- blood concentration levels in infected mice dosed orally [8]: below the detection level
- IC50 [2, 12]: 64 ± 20 nM
- IC50 [3, 13]: 47 ± 10 nM
- Average % parasitemia Day 4 ([4]; IV 4 mg/kg/day, 4 days): 0.4 ± 0.4%
- Average % parasitemia Day 6 ([4]; IV 4 mg/kg/day, 4 days): 1.8 ± 1.4%
- Average % parasitemia Day 9 ([4]; IV 4 mg/kg/day, 4 days): 8.1 ± 5%
- % reduction of parasitemia Day 9 ([4]; IV 4 mg/kg/day, 4 days, 4 mg/kg/day): 61.9 ± 26%
- % reduction of parasitemia Day 9 ([4]; IV 4 mg/kg/day, 4 days, listed as compound 1, 4 mg/kg/day): 62%
- Average % parasitemia Day 4 ([4]; IV 8 mg/kg/day, 4 days): 0%
- Average % parasitemia Day 6 ([4]; IV 8 mg/kg/day, 4 days): 0.9 ± 0.9%
- Average % parasitemia Day 9 ([4]; IV 8 mg/kg/day, 4 days): 5.1 ± 1.7%
- % reduction of parasitemia Day 9 ([4]; IV 8 mg/kg/day, 4 days, 8 mg/kg/day): 82.9 ± 2.5%
- % reduction of parasitemia Day 9 ([4]; IV 8 mg/kg/day, 4 days, listed as compound 1, 8 mg/kg/day): 83%
- Average % parasitemia Day 4 ([4]; Oral 20 mg/kg/day, 4 days): 5.3 ± 3.9%
- Average % parasitemia Day 6 ([4]; Oral 20 mg/kg/day, 4 days): 22.7 ± 10%
- Average % parasitemia Day 9 ([4]; Oral 20 mg/kg/day, 4 days): 24.2 ± 5.6%
- % reduction of parasitemia Day 9 ([4]; Oral 20 mg/kg/day, 4 days): 3.7 ± 5.6%
- Average % parasitemia Day 4 ([4]; Oral 40 mg/kg/day, 4 days): 5.9 ± 2%
- Average % parasitemia Day 6 ([4]; Oral 40 mg/kg/day, 4 days): 10.7 ± 5%
- Average % parasitemia Day 9 ([4]; Oral 40 mg/kg/day, 4 days): 48.6 ± 12%
- % reduction of parasitemia Day 9 ([4]; Oral 40 mg/kg/day, 4 days): −93.8 ± 49.3%
- parasitaemia on day 4 in mice dosed orally ([4]; oral groups (20 and 40 mg/kg/day), day 4): ~5%
- IC50 [5, 14]: 463 ± 120 nM
- IC50 [6, 15]: 505 ± 100 nM
- clearance [9, 16]: 28 mL/min/kg
- Vd [9, 16]: 20 L/kg
- concentration at 9 h ([9]; both sexes, C57BL/6, mouse, whole blood, intravenous 4 mg/kg, 9 h post-dosing, read-out: blood level after 9 h): 160 nM
- AUC(0-inf) [9, 17]: 3.27 µM·h
- half-life [9, 17]: 258 ± 61.2 min
- CL [9, 18]: 27.6 ± 8 mL/min/kg
- Vss [9, 18]: 20.1 ± 6 L/kg
- oral bioavailability ([9]; mice, oral dosing, in words): poor oral bioavailability
- blood levels after oral dosing [9]: below the LOQ

SMILES: CCc1c(OCc2ccccc2)c(=O)ccn1CCCCCCNc1ccnc2cc(Cl)ccc12 [Compound 2]
- RI (resistance index) [7]: 2.2
- blood concentration levels in infected mice dosed orally [8]: below the detection level
- IC50 [2, 12]: 41 ± 20 nM
- IC50 [3, 13]: 122 ± 30 nM
- IC50 [5, 14]: 76 ± 10 nM
- toxicity [10]: High toxicity
- IC50 [6, 15]: 89 ± 10 nM
- clearance [9, 16]: 366 ± 46.6 mL/min/kg
- Vd [9, 16]: 154.1 ± 1 L/kg
- concentration at 2 h ([9]; both sexes, C57BL/6, mouse, whole blood, intravenous 4 mg/kg, 2 h post-dosing, read-out: blood level after 2 h): 30 nM
- AUC(0-inf) [9, 17]: 0.42 µM·h
- half-life [9, 17]: 42 ± 12 min
- blood levels after oral dosing [9]: below the LOQ
